From US8414883B2, “Parvovirus cancer therapy and combination with chemotherapy” (priority 2007, dated 2013)
“Also recorded” adds a separate entry of the source. Like-named read-outs stand apart in the source and are kept apart here.

Tests used:
[1] = Toxicological assessment of blood markers in PDAC-bearing rats; type: in vivo, Lewis rats; settings: rat model
Protocol: Blood samples were analyzed for: (A) red blood cell (RBC), platelet, and white blood cell (WBC) counts and related parameters; (B) liver (aspartate amino transferase [ASAT], alanine amino transferase [ALAT]) and kidney (Creatinine) markers. The data shown are means with SD bars.
H-1PV was inoculated intratumorally (i.t.). Blood samples were taken from animal tail vein 2 weeks after the last therapeutic treatment. Toxicological markers were assayed in Strasbourg University Hospital using automated clinical laboratory analysis (Biochemical multiparametric device Biochime ADVIA 160, Siemens, Cergy Pontoise, France).

T3M-4 cells = assay: MTT cytotoxicity of H-1PV, gemcitabine and their combination, T3M-4; type: cell-based, human
Protocol: (§1) Survival was measured using MTT assays performed 72 h after infection, in comparison with mock-treated cultures (100%), and is inversely expressed as cell death rate. The data presented are means from 3 independent experiments carried out in quadruplicates.
(§2) For cytotoxicity assessment, cells were seeded in 96-well plates at a density of 2×10^3 cells per well and treated as indicated in the Figure Legends. Cell viability was determined by the colorimetric MTT (3-(4,5-dimethylthiazolyl-2)-2,5-diphenyltetrazolium bromide) assay, as recommended by the manufacturer (Sigma, Deisenhofen, Germany).
(§3) Means and standard deviations (SD) were calculated from triplicate in vitro experiments. […] The isobologram was created from the data obtained for the combination of the two agents. […] CI=1 represents the conservation isobologram and indicates additive effects. CI values below 1 indicate higher than the expected additive effect (synergy).
Drug sensitivity of parental and resistant cells was assessed in both MTT and clonogenic survival assays.

SU86.86 cells = assay: MTT cytotoxicity of H-1PV, gemcitabine and their combination, SU86.86; type: cell-based, human
Protocol: as §1, §2, §3

MiaPaCa-2 cells = assay: MTT cytotoxicity of H-1PV, gemcitabine and their combination, MiaPaCa-2; type: cell-based, human
Protocol: as §1, §2, §3

HA-RPC cells = assay: MTT cytotoxicity on rat PDAC cells; type: cell-based; settings: compared with the human PDAC cells
Protocol: as §2

Colo357 cells = assay: MTT cytotoxicity of H-1PV, gemcitabine and their combination, Colo357; type: cell-based; settings: Homo sapiens
Protocol: as §1, §2, §3

BxPC3 cells = assay: MTT cytotoxicity of H-1PV, gemcitabine and their combination, BxPC3; type: cell-based; settings: Homo sapiens
Protocol: as §1, §2, §3

[2] = system: intrapancreatic HA-RPC tumors; assay: Survival of PDAC-bearing rats after combined gemcitabine and H-1PV; type: in vivo, Lewis rats; settings: vs. mock treatment or gemcitabine monotherapy
Protocol: Animal survival was monitored over a period of 100 days and is presented as Kaplan-Meyer curves, with the median survival and P values indicated below.
Male Lewis rats (Janvier, Le Genest Saint Isle, France) weighing 180-200 g were used for pancreatic carcinoma implantation. 5.10^6 HA-RPC cells were injected in the pancreatic parenchyma. Tumor progression is confined to the pancreatic tail for the first 3 weeks after implantation, leading to lymph node invasion during the 4th week. Liver metastases appear at weeks 5-6 and death with lung metastasis occurs within weeks 6-9.[17] Animals were kept under conventional conditions (temperature 22±2° C., relative humidity 55±10%, dark-light rhythm of 12 hr) with unrestricted access to a balanced pellet diet and water. Animal experiments were performed according to the French and European Community directives for animal care (number 86/609/EEC of Nov. 24, 1986). […]
Mean and standard deviations from triplicate in vitro experiments were calculated. Difference in tumour volume, determined in vivo through mCT-scan size measurements, was tested using a one-way analysis of variance followed by a parametric Student's unpaired t test as Bartlett's test indicated homogeneity of variance. […] The survival curves were generated using the Kaplan-Meier method, and the differences between the curves were assessed by the log-rank test. […]

Panc-1 cells = assay: MTT cytotoxicity of H-1PV, gemcitabine and their combination, Panc-1; type: cell-based; settings: Homo sapiens
Protocol: as §1, §2, §3

U373MG cells = assay: MTT survival of U373MG cells; type: cell-based, human; settings: U373; 6 days; H-1PV 5 pfU/cell, 25 μM TMZ
Protocol: The percentage of surviving U373MG cells [%] 3 days (A) and 6 days (B) after treatment with H-1PV (Virus), combined treatment with H-1PV and TMZ (V+TMZ), and treatment with TMZ only (TMZ) is shown.
(§4) Initially, the rates of survival of the cell lines used in the study were determined using MTT assays in order to check whether these cell lines are sensitive for H-1PV infection and Temozolomide (TMZ) treatment. In addition, the rates of survival after combined treatment with H-1PV and TMZ were determined. […] The graphs of FIGS. 7-11 depict the results after 3 and 6 days, respectively. After 3 days of treatment distinct effects can already be observed. After 6 days the experiments were terminated since control cells were already confluent. In addition, after 6 days further analyses could not be carried out due to the very low rate of survival (depending on the particular cell line).

U87MG cells = assay: MTT survival of U87MG cells; type: cell-based, human; settings: 3 days, H-1PV 5 pfU/cell, 25 μM TMZ
Protocol: The percentage of surviving U87MG cells [%] 3 days (A) and 6 days (B) after treatment with H-1PV (Virus), combined treatment with H-1PV and TMZ (V+TMZ), and treatment with TMZ only (TMZ) is shown.
as §4

U343MG cells = assay: MTT survival of U343MG cells; type: cell-based, human; settings: U343; 6 days; H-1PV 5 pfU/cell, 25 μM TMZ
Protocol: The percentage of surviving U343MG cells [%] 3 days (A) and 6 days (B) after treatment with H-1PV (Virus), combined treatment with H-1PV and TMZ (V+TMZ), and treatment with TMZ only (TMZ) is shown.
as §4

Nc1ccn([C@@H]2O[C@H](CO)[C@@H](O)C2(F)F)c(=O)n1 [gemcitabine]
bilirubin, ASAT, and ALAT levels ([1]; 2 weeks after last treatment): elevated | reticulocyte and monocyte levels ([1]; 2 weeks after last treatment): drop | Creatinine levels ([1]; kidney clearance): remained stable | EC50 (T3M-4 cells; Homo sapiens, T3M4, read-out: EC50 gemcitabine monotherapy (in brackets)): 1.2 ng/mL | EC75 comb. 1 gemcitabine (T3M-4 cells; T3M-4, combined with H-1PV MOI 1): 2.4 ng/mL | EC75 comb. 2 gemcitabine (T3M-4 cells; T3M-4, combined with H-1PV MOI 10): 1.5 ng/mL | EC75 mono. gemcitabine (T3M-4 cells; T3M-4, gemcitabine alone, MTT): 2.5 ng/mL | EC50 (SU86.86 cells; Homo sapiens, SU.86.86, read-out: EC50 gemcitabine monotherapy (in brackets)): 2.5 ng/mL | EC75 comb. 1 gemcitabine (SU86.86 cells; SU86.86, combined with H-1PV MOI 1): 8.0 ng/mL | EC75 comb. 2 gemcitabine (SU86.86 cells; SU86.86, combined with H-1PV MOI 10): 1.3 ng/mL | EC75 mono. gemcitabine (SU86.86 cells; SU86.86, gemcitabine alone, MTT): 17 ng/mL | EC50 (MiaPaCa-2 cells; Homo sapiens, MIA PaCa-2, read-out: EC50 gemcitabine monotherapy (in brackets)): 9 ng/mL | EC75 comb. 1 gemcitabine (MiaPaCa-2 cells; MiaPaCa-2, combined with H-1PV MOI 1): 18 ng/mL | EC75 comb. 2 gemcitabine (MiaPaCa-2 cells; MiaPaCa-2, combined with H-1PV MOI 10): 2.0 ng/mL | EC75 mono. gemcitabine (MiaPaCa-2 cells; MiaPaCa-2, gemcitabine alone, MTT): 30 ng/mL | sensitivity to virus and gemcitabine toxicity (HA-RPC cells): same range of sensitivity | EC50 (Colo357 cells; COLO357, read-out: EC50 mono. gemcitabine): 1.5 ng/mL | EC50 (Colo357 cells; read-out: EC50 comb. 1 gemcitabine, Colo357, combined with H-1PV MOI 1): 1.3 ng/mL | EC50 (Colo357 cells; read-out: EC50 comb. 2 gemcitabine, Colo357, combined with H-1PV MOI 10): 0.6 ng/mL | EC50 (BxPC3 cells; BXPC-3, read-out: EC50 comb. 1 gemcitabine, BxPC3, combined with H-1PV MOI 1): 20 ng/mL | EC50 (BxPC3 cells; BXPC-3, read-out: EC50 comb. 2 gemcitabine, BxPC3, combined with H-1PV MOI 10): 7 ng/mL | EC50 (BxPC3 cells; BXPC-3, read-out: EC50 mono. gemcitabine): 25 ng/mL | survival of PDAC-bearing rats [2]: transient protection | EC50 (Panc-1 cells; PANC-1, read-out: EC50 mono. gemcitabine): 400 ng/mL | EC50 (Panc-1 cells; read-out: EC50 comb. 1 gemcitabine, Panc-1, combined with H-1PV MOI 1): 200 ng/mL | EC50 (Panc-1 cells; read-out: EC50 comb. 2 gemcitabine, Panc-1, combined with H-1PV MOI 10): 60 ng/mL

Cn1nnc2c(C(N)=O)ncn2c1=O [TMZ, Temozolomide]
cells lysed / cytotoxic effect (U373MG cells): no cytotoxic effect; also recorded: did not result in cell death | cells lysed / killed (U87MG cells): about 20% | cells killed (U343MG cells): more than 80%
